# ChEMBL document CHEMBL6120994, “Unravelling the potential of natural chelating agents in the control of Staphylococcus aureus and Pseudomonas aeruginosa biofilms” (Eur J Med Chem, 2025)
# Active and inactive are the calls of the source. The rule behind the calls is not given here.
# What was measured:
# Staphylococcus aureus [1] = experiment: Inhibition of virulence production in Staphylococcus aureus CECT 976 biofilms assessed as diameter of protease halo at 1/2XMTC measured after 72 hrs (reference value: 11.8 to 13.3 mm); format: functional
# Staphylococcus aureus [2] = experiment: Inhibition of virulence production in pre-established 24 hr-old Staphylococcus aureus CECT 976 biofilms assessed as diameter of siderophores halo at 10XMTC measured after 48 hrs (reference value: 11.5 to 11.8 mm); format: functional
# Pseudomonas aeruginosa [3] = experiment: Antibiotic adjuvant activity against preestablished 24-hr old Pseudomonas aeruginosa ATCC 10145 assessed as potentiation of ciprofloxacin-induced antibiofilm activity by measuring reduction of CFU biofilm cells at 1000 ug/ml measured after 24 hrs in presence of 1/8XMIC ciprofloxacin by visual counting method; format: functional, organism-based; conditions: dose 1000.0 µg/ml
# Staphylococcus aureus [4] = experiment: Inhibition of virulence production in Staphylococcus aureus CECT 976 biofilms assessed as diameter of lipases halo at 1/2XMTC measured after 48 hrs (reference value: 11.5 to 13.3 mm); format: functional
# Staphylococcus aureus [5] = experiment: Inhibition of virulence production in Staphylococcus aureus CECT 976 biofilms assessed as diameter of siderophores halo at 1/2XMTC measured after 48 hrs (reference value: 12 mm); format: functional
# HepG2 [6] = experiment: Cytotoxicity against human HepG2 cells assessed as cell mass by measuring SRB binding at 93.5 to 1000 ug/ml measured after 24 hrs by SRB assay; format: toxicity, cell-based; conditions: hepg2, 24 h, at 93.5 to 1000 µg/mL, dose 93.5-1000 µg/ml
# Staphylococcus aureus [7] = experiment: Inhibition of virulence production in pre-established 24 hr-old Staphylococcus aureus CECT 976 biofilms assessed as diameter of protease halo at 1XMTC measured after 72 hrs (reference value: 12.3 to 13.3 mm); format: functional
# Staphylococcus aureus [8] = experiment: Antibiotic adjuvant activity against Staphylococcus aureus CECT 976 assessed as potentiation of tobramycin-induced antibacterial activity by measuring fractional inhibitory concentration index (MBC) at 62.5 ug/ml measured after 24 hrs by checkerboard assay; format: functional; conditions: dose 62.5 µg/ml
# Staphylococcus aureus [9] = experiment: Inhibition of virulence production in Staphylococcus aureus CECT 976 biofilms assessed as diameter of lipases halo at 1XMTC measured after 48 hrs (reference value: 11.8 to 12.5 mm); format: functional
# Staphylococcus aureus [10] = experiment: Inhibition of virulence production in Staphylococcus aureus CECT 976 biofilms assessed as diameter of lipases halo at 1/2XMTC measured after 48 hrs in presence of 1/8XMIC tobramycin (reference value: 12.5 to 12.8 mm); format: functional
# Staphylococcus aureus [11] = experiment: Antibiotic adjuvant activity against Staphylococcus aureus CECT 976 assessed as potentiation of tobamycin-induced antibacterial activity by measuring tobramycin MBC at 62.5 ug/ml measured after 24 hrs by checkerboard assay (reference value: 4 ug/ml); format: functional; conditions: dose 62.5 µg/ml
# Staphylococcus aureus [12] = experiment: Inhibition of virulence production in pre-established 24 hr-old Staphylococcus aureus CECT 976 biofilms assessed as diameter of siderophores halo at 10XMTC measured after 48 hrs in presence of 1/2XMIC tobramycin (reference value: 11.8 +/-0.5 mm); format: functional
# Staphylococcus aureus [13] = experiment: Inhibition of virulence production in pre-established 24 hr-old Staphylococcus aureus CECT 976 biofilms assessed as diameter of lipases halo at 10XMTC measured after 48 hrs in presence of 1/4XMIC tobramycin (reference value: 11.5 +/-0.6 mm); format: functional
# Staphylococcus aureus [14] = experiment: Inhibition of virulence production in pre-established 24 hr-old Staphylococcus aureus CECT 976 biofilms assessed as diameter of protease halo at 10XMTC measured after 72 hrs in presence of 1XMIC tobramycin (reference value: 11.5 to 12 mm); format: functional
# Staphylococcus aureus [15] = experiment: Inhibition of virulence production in Staphylococcus aureus CECT 976 biofilms assessed as diameter of siderophores halo at 1/2XMTC measured after 48 hrs in presence of 1/8XMIC tobramycin (reference value: 10.5 +/-0.6 mm); format: functional
# Staphylococcus aureus [16] = experiment: Inhibition of virulence production in pre-established 24 hr-old Staphylococcus aureus CECT 976 biofilms assessed as diameter of gelatinases halo at 10XMTC measured after 48 hrs in presence of 1/4XMIC tobramycin (reference value: 10 to 11.3 mm); format: functional
# [17] = Metal chelating activity at iron(III) in chrome azurol sulphonate solution assessed as absorption spectra peak around […] incubated for 30 mins by spectrophotometric analysis
# Staphylococcus aureus [18] = experiment: Inhibition of virulence production in Staphylococcus aureus CECT 976 biofilms assessed as diameter of gelatinases halo at 1XMTC measured after 48 hrs (reference value: 11.5 to 11.8 mm); format: functional
# Staphylococcus aureus [19] = experiment: Bactericidal activity against Staphylococcus aureus CECT 976 assessed as bacterial killing incubated in MHB for 24 hrs and measured following culturing on agar plate for 24 hrs; format: functional; conditions: time 48 hrs
# Pseudomonas aeruginosa [20] = experiment: Antibiofilm activity against preestablished 24 hr-old Pseudomonas aeruginosa ATCC 10145 assessed as reduction in metabolic activity of biofilm cells at MTC by resazurin staining based fluorescence analysis; format: functional, organism-based
# Pseudomonas aeruginosa [21] = experiment: Antibacterial activity against Pseudomonas aeruginosa ATCC 10145 assessed as inhibition of bacterial growth by measuring inhibition zone diameter at 100 ug/ml incubated for 24 hrs in presence of ciprofloxacin by disc diffusion method (reference value: 24.25 +/-0.5 mm); format: functional; conditions: read-out: DIZ
# [22] = Cytotoxicity against human HepG2 cells assessed as metabolic activity by measuring resazurin reduction at 93.5 to 1000 ug/ml measured after 24 hrs by resazurin reduction method; format: toxicity, cell-based; conditions: at 93.5 to 1000 µg/mL, dose 93.5-1000 µg/ml, read-out: Activity
# Staphylococcus aureus [23] = experiment: Inhibition of virulence production in pre-established 24 hr-old Staphylococcus aureus CECT 976 biofilms assessed as diameter of lipases halo at 1XMTC measured after 48 hrs (reference value: 11.5 to 11.8 mm); format: functional
# Staphylococcus aureus [24] = experiment: Antibiofilm activity against preestablished 24 hr-old Staphylococcus aureus CECT 976 assessed as reduction in metabolic activity of biofilm cells at MTC by resazurin staining based fluorescence analysis; format: functional, organism-based
# HepG2 [25] = experiment: Induction of ROS production in human HepG2 cells assessed as DCF fluorescence at 90 to 1000 ug/ml measured after 24 hrs by DCFH-DA staining based fluorescence analysis; format: toxicity, cell-based; conditions: hepg2, 24 h, at 90 to 1000 µg/mL, dose 90-1000 µg/ml
# Staphylococcus aureus [26] = experiment: Antibiofilm activity against Staphylococcus aureus CECT 976 assessed as reduction in biofilm cells culturability at 500 to 1000 ug/ml measured after 24 hrs by visual counting method; format: functional, organism-based; conditions: dose 500-1000 µg/ml
# Cell membrane = experiment: Disruption of membrane integrity in Staphylococcus aureus CECT 976 biofilm assessed as increase in PI uptake at 500 ug/ml measured after 24 hrs in presence of 1/8X to 1/2XMIC tobramycin by flow cytometry; format: subcellular; conditions: dose 500.0 µg/ml
# Staphylococcus aureus [27] = experiment: Inhibition of virulence production in pre-established 24 hr-old Staphylococcus aureus CECT 976 biofilms assessed as diameter of siderophores halo at 10XMTC measured after 48 hrs in presence of 1/4XMIC tobramycin (reference value: 11.5 +/-0.6 mm); format: functional
Structure (SMILES),Activity (Staphylococcus aureus [1]),Activity (Staphylococcus aureus [2]),Activity (Pseudomonas aeruginosa [3]),Activity (Staphylococcus aureus [4]),Activity (Staphylococcus aureus [5]),Activity (HepG2 [6]),Activity (Staphylococcus aureus [7]),fractional inhibitory concentration index (FICI) (Staphylococcus aureus [8]),Activity (Staphylococcus aureus [9]),Activity (Staphylococcus aureus [10]),MBC (Staphylococcus aureus [11]),Activity (Staphylococcus aureus [12]),Activity (Staphylococcus aureus [13]),Activity (Staphylococcus aureus [14]),Activity (Staphylococcus aureus [15]),Activity (Staphylococcus aureus [16]),Activity [17],Activity (Staphylococcus aureus [18]),MBC (Staphylococcus aureus [19]),Activity (Pseudomonas aeruginosa [20]),other results
O=c1cc(CO)occ1O [KOJIC ACID],0 mm,9.3 mm,inactive,2.8 mm,10 mm,> 90%,3.5 mm,0.3,3.3 mm,2.5 mm,1 µg/mL,10 mm,2.5 mm,0 mm,9 mm,0 mm,Active,0 mm,> 1000 µg/mL,inactive,zone of inhibition at 100 µg/mL (Pseudomonas aeruginosa [21]): 30.2 mm; viability at 24 h [22]: > 80%; Activity (Staphylococcus aureus [23]): 2.3 mm; Activity (Staphylococcus aureus [24]): inactive; Activity (HepG2 [25]): ~ 80%; Activity (Staphylococcus aureus [26]): inactive; Activity (Cell membrane): inactive; Activity (Staphylococcus aureus [27]): 10.3 mm
Cc1occc(=O)c1O [MALTOL],0 mm,10 mm,inactive,3.5 mm,10 mm,> 90%,3.5 mm,0.3,3 mm,2 mm,1 µg/mL,10 mm,2.3 mm,0 mm,10 mm,0 mm,Active,0 mm,> 1000 µg/mL,inactive,zone of inhibition at 100 µg/mL (Pseudomonas aeruginosa [21]): 27.2 mm; viability at 24 h [22]: > 80%; Activity (Staphylococcus aureus [23]): 2.8 mm; Activity (Staphylococcus aureus [24]): inactive; Activity (HepG2 [25]): ~ 116%; Activity (Staphylococcus aureus [26]): inactive; Activity (Cell membrane): inactive; Activity (Staphylococcus aureus [27]): 10.3 mm
